What was measured:
RAW264.7 [1] = experiment: Antiinflammatory activity in mouse RAW264.7 cells assessed as inhibition of LPS-induced NO production incubated 30 mins prior to LPS challenge; assay type: functional, cell-based
RAW264.7 [2] = experiment: Antiinflammatory activity in mouse RAW264.7 cells assessed as inhibition of LPS-induced NO production at 5 uM incubated 30 mins prior to LPS challenge; assay type: functional
RAW264.7 [3] = experiment: Antiinflammatory activity in mouse RAW264.7 cells assessed as inhibition of LPS-induced iNOS expression incubated 30 mins prior to LPS challenge by Western blotting; assay type: functional, cell-based
RAW264.7 [4] = experiment: Cytotoxicity against mouse RAW264.7 cells after 24 hrs by SRB assay; assay type: cell-based; conditions: raw264.7, 24 h

Row | SMILES | IC50 (RAW264.7 [1]) [µM] | inhibition at 5 µM (RAW264.7 [2]) [%] | Activity (RAW264.7 [3]) | Activity (RAW264.7 [4])
1 | CNC(=N)NCCC[C@H](N)C(=O)O | 25.5 |  |  | 
2 | C[C@@H]1O[C@@H](Oc2ccc(CC#N)cc2)[C@H](O)[C@H](O)[C@H]1O [NIAZIRIN] | > 45 | < 1 |  | 
3 | CSC(=O)NCc1ccc(O[C@@H]2O[C@@H](C)[C@H](O)[C@@H](O)[C@H]2O)cc1 | > 45 | 24.3 |  | 
4 | COC(=S)NCc1ccc(O[C@@H]2O[C@@H](C)[C@H](O)[C@@H](O)[C@H]2O)cc1 [NIAZININ A] | > 45 | < 1 |  | 
5 | C[C@@H]1O[C@@H](Oc2ccc(CN=C=S)cc2)[C@H](O)[C@H](O)[C@H]1O | 14.4 |  | Dose-dependent effect | 

Now from value to compound, other results behind:

Row | IC50 (RAW264.7 [1]) [µM] | SMILES | inhibition at 5 µM (RAW264.7 [2]) [%] | Activity (RAW264.7 [3]) | Activity (RAW264.7 [4])
6 | 2.71 | CC(=O)O[C@@H]1[C@@H](O)[C@@H](O)[C@H](Oc2ccc(CN=C=S)cc2)O[C@H]1C |  | Dose-dependent effect | Non-toxic
7 | > 45 | COC(=S)NCc1ccc(O[C@@H]2O[C@@H](C)[C@H](OC(C)=O)[C@@H](O)[C@H]2O)cc1 [NIAZICIN A] | 17.3 |  | 
8 | 2.66 | CC(=O)O[C@@H]1[C@@H](O)[C@H](C)O[C@@H](Oc2ccc(CN=C=S)cc2)[C@@H]1O |  | Dose-dependent effect | Non-toxic
9 | 1.67 | CC(=O)O[C@H]1[C@H](Oc2ccc(CN=C=S)cc2)O[C@@H](C)[C@H](O)[C@H]1O |  | Dose-dependent effect | Non-toxic

— ChEMBL document CHEMBL1221314, “Potential anti-inflammatory phenolic glycosides from the medicinal plant Moringa oleifera fruits” (Bioorg Med Chem, 2010)
